This is an account of results in patent publication US20220387602A1, “BIFUNCTIONAL DEGRADERS AND THEIR METHODS OF USE” (NOVARTIS AG, priority 2019, published 2022).

One test relates to HEK293 and TMD8 cells. The test can be described thus: Proteomics experiment (TMT quantification mass spectrometry of protein abundance). It counts as cell-based. The settings on record: 1 μM, 6 hours, FIG. 3E. How it is done: HEK293 and TMD8 cells were treated with 1 μM dasatinib, 1 μM compound 06, 1 μM compound 07 or DMSO and protein abundance was analyzed using TMT quantification mass spectrometry. Significant changes were assessed by limma, log 2 fold changes are shown on the x-axis and p-values on the y-axis. Proteins with kinase annotations in UniProt are shown as squares and kinases with a log2 fold change≤−0.6 and a p-value≤0.01 are labeled with the corresponding gene name.
HEK293 and TMD8 cells were treated for 6 hours with DMSO (3 replicates), 1 μM dasatinib (2 replicates), 1 μM compound 06 (3 replicates) and 1 μM compound 07 (3 replicates), respectively. TMT11plex-labeled peptides were generated with the PreOmics iST-NHS kit according to the manufacturer's protocol (PreOmics, Germany). […] The 24 fractions were analyzed with a 25 cm×75 μm ID, 1.6 μm C18 Aurora Series emitter column (IonOpticks, Australia) on an EASY-nLC 1200 system coupled to an Orbitrap™ Fusion Lumos mass spectrometer (Thermo Fisher Scientific, USA). […] The Proteome Discoverer™ 2.1 software and the SEQUEST algorithm was used for protein identification and relative quantification. Log2 fold changes of protein abundances and p-values were calculated in Python and R with the limma package (Ritchie M E et al. Limma powers differential expression analyses for RNA-sequencing and microarray studies. Nucleic Acids Res. 2015, 43(7):e47).

A further test has as its target T1, CSK (Homo sapiens, UniProt P41240).
T1 construct: EGFP (after a Leu that replaces the STOP codon); expressed in transfected cells; host or cells: HEK293A (Invitrogen R70507), lentiviral transduction
Briefly: CSK-GFP protein abundance flow cytometry assay in HEK293A. In kind it is cell-based. The settings on record: for CSK Amax: % protein remaining at the concentration of maximum degradation; for DC50: HEK293A CSK-GFP sensor cells, 24 h. On the procedure: Degradation of BTK, CSK, ABL2, EPHA4 and YES1 was measured in HEK293A cells (Invitrogen R70507) expressing either BTK-GFP and RFP, CSK-GFP and mCherry, GFP-ABL2 and mCherry, EPHA4-GFP and mCherry, or YES1-GFP and mCherry from a stably integrated bicistronic BTK-GFP-iresRFP, CSK-GFP-CHYSEL-mCherry, GFP-ABL2-CHYSEL-mCherry, EPHA4-GFP-CHYSEL-mCherry, or YES1-GFP-CHYSEL-mCherry construct, respectively. Reduction of the GFP signal measured by flow cytometry served as readout for BTK, CSK, ABL2, EPHA4 and YES1 degradation after degrader treatment.
293A BTK-GFP-Ires-RFP, CSK-GFP-CHYSEL-mCherry, GFP-ABL2-CHYSEL-mCherry, EPHA4-GFP-CHYSEL-mCherry, or YES1-GFP-CHYSEL-mCherry sensor cells were generated by lentiviral vector transduction using the pLenti6-BTK-GFP-Ires-RFP, pLenti6-mCherryCHYSEL-EGFP-ABL2, pLenti6-CSK-GFP-CHYSEL-mCherry, pLenti6-EPHA4-GFP-CHYSEL-mCherry or pLenti6-YES1-GFP-CHYSEL-mCherry sensor construct described before. Lentiviral particles were produced in HEK293FT cells (Invitrogen R70007) by co-transfection of 500 ng pLenti6-BTK-GFP-Ires-RFP or pLenti6-IKZF3-GFP-Ires-RFP, 500 ng delta8.71 and 200 ng pVSVG diluted in 100 μL OptiMEM serum free medium (Invitrogen #11058-021) that was mixed after 5 min preincubation with 3 μL of Lipofectamine2000 (Invitrogen #11668-019) in 97 μL OptiMEM serum free medium. The mix was incubated for another 20 min at RT and then added on 1 mL of a freshly prepared suspension of HEK293FT cells in a well of a 6-well plate (concentration 1.2×10^6 cells/mL). 1 day after transfection, the medium was replaced with 1.5 mL of complete growth medium (DMEM high Glucose+10% FCS+1% L-Glutamine+1% NEAA+1% NaPyr.). 48 h post transfection supernatant containing viral transducing particles was collected and frozen at −80° C.
2 days before transduction with viral particles 1×10^5 HEK293A cells (Invitrogen R70507) were seeded in 2 mL growth medium in a well of a 6-well plate. Infection was performed with 90 μL of collected supernatant containing viral transducing particles in 1 mL medium including 8 µg/mL polybrene. 24 h post infection, stably transfected cells were selected with blasticidin at a concentration of 8 μg/mL referred to as stable HEK293A sensor cells.
Stable HEK293A sensor cells were maintained in complete growth medium (DMEM high Glucose+10% FCS+1% L-Glutamine+1% NEAA+1% NaPyr.) with passaging performed twice per week. […] GFP and RFP are read in the channels called FITC and PE, respectively.
Concentration response curves plotting relative reduction of the GFP signal (measured by flow cytometry) versus 10 compound concentrations (starting concentration 10 μM, 3 fold dilution steps) of the compounds allowed generation of DC50 values.
On the technique in general: In flow cytometry, cells or beads pass a laser one at a time.

T1 sequence (P41240 whole entry): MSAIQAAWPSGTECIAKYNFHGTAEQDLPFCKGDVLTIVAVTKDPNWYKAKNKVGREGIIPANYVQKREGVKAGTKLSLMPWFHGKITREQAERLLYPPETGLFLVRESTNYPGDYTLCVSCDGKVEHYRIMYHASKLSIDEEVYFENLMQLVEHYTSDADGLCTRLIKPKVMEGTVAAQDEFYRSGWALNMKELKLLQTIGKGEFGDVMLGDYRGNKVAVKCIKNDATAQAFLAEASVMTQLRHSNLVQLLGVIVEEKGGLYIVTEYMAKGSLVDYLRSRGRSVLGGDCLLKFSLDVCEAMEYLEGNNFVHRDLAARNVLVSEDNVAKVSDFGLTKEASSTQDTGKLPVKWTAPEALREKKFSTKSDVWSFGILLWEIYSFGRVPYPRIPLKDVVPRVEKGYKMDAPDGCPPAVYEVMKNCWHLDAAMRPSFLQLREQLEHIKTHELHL

Turning to `COc1ccc(C(=O)N2CCC3(CCN(C(=O)CCCCCCCN4CCN(c5cc(Nc6ncc(C(=O)Nc7c(C)cccc7Cl)s6)nc(C)n5)CC4)CC3)CC2)cc1N1CCC(=O)NC1=O` [compound 06, N-(2-chloro-6-methylphenyl)-2-((6-(4-(8-(9-(3-(2,4-dioxotetrahydropyrimidin-1(2H)-yl)-4-methoxybenzoyl)-3,9-diazaspiro[5.5]undecan-3-yl)-8-oxooctyl)piperazin-1-yl)-2-methylpyrimidin-4-yl)amino)thiazole-5-carboxamide], the “degradation of bound kinase targets (proteomics)” value in the test on HEK293 and TMD8 cells is listed as “able to degrade several of the targets to which they bind”. In addition, on CSK, the “CSK Amax” value is on record as 4% and the DC50 worked out at 4 nM.

With `COc1ccc(C(=O)N2CCC3(CCN(C(=O)CN4CCN(c5cc(Nc6ncc(C(=O)Nc7c(C)cccc7Cl)s6)nc(C)n5)CC4)CC3)CC2)cc1N1CCC(=O)NC1=O` [compound 07, N-(2-chloro-6-methylphenyl)-2-((6-(4-(2-(9-(3-(2,4-dioxotetrahydropyrimidin-1(2H)-yl)-4-methoxybenzoyl)-3,9-diazaspiro[5.5]undecan-3-yl)-2-oxoethyl)piperazin-1-yl)-2-methylpyrimidin-4-yl)amino)thiazole-5-carboxamide], the “degradation of bound kinase targets (proteomics)” value in the test on HEK293 and TMD8 cells is reported as “able to degrade several of the targets to which they bind”. On CSK, the “CSK Amax” value came out at 1% and the DC50 was found to be 23 nM.
